From patent US7642239B2, “Inhibition of placenta growth factor (PLGF) mediated metastasis and/or angiogenesis” (Center for Molecular Medicine and Immunology, priority 2005, dated 2010)
Marks after values point to notes of the source that are not given here. Each block holds one molecule with its values, some of them ahead of it.

Tests used:
MDA-MB-231 [1] = test: Wound-healing (motility) assay, MDA-MB-231; format: cell-based, human; conditions: for Migrating cells: 18-24 h; for inhibition (block) of PlGF-stimulated motility / migration: soluble Flt-1 2 nM, PD98059 50 μM, Wortmannin 5 nM
Procedure: (§1) MCF-7, MDA-MB-23 1, and MDA-MB-468 breast tumor cell lines or HECs were seeded onto sterile glass coverslips in Petri dishes or six-well plates. When the cells were 70-80% confluent, the monolayers were scratched with a sterile plastic pipet tip.
(§2) Inhibitor concentrations were 50 μM PD98059 (PD98) (mitogen activated protein kinase-kinase 1 [MEK1] inhibitor), 5 nM Wortmannin (phosphatidyl inositol 3 kinase [PI3K] inhibitor), or human recombinant soluble Flt-1 (sFlt-1) (R&D Systems). […] Cells were pre-incubated with PD98 and Wortmannin for 15-30 min before addition of PlGF. Stained (Wright-Giemsa) and mounted coverslips were examined microscopically. Five to ten 100× fields were evaluated by counting the number of cells separated from the wound edges and which appeared to be migrating toward the center of the wound. Results are reported as the average number of cells migrating into the wound/100× field. In some cases data from separate experiments were combined to accommodate inclusion of various treatments in the tables.
(§3) Antibody concentration was 1 μg/ml. MEK1 inhibitor, PD98059 (PD98), 50 μM. PI3K inhibitor, Wortmannin, 5 nM. […] Values for antibody and inhibitor treatments were from separate experiments which included all relevant controls. […] UT denotes untreated controls. *P<0.01 (ANOVA) compared to UT; † P<0.02 (ANOVA) compared to PlGF only. ‡ P<0.001 (ANOVA) compared to PlGF only.

[2] = test system: MDA-MB-231 s.c. xenograft; test: Subcutaneous MDA-MB-231 xenograft growth and lung metastasis; format: in vivo, nude mice; conditions: subsequent experiment, start at 0.07-0.08 cm^3; 200 μg i.p.; mock 0.25
Procedure: The tissue-culture-grown human breast tumor cell line, MDA-MB-231, was implanted subcutaneously (s.c.) on the flanks of nude mice. When tumors were visible, the mice were weighed and the tumors measured. Treatment with peptides was begun when tumors averaged about 0.06-0.12 cm^3 in volume. Mice were treated with 200-μg peptide in PBS by i.p. injection at 3-4-day intervals for 4 weeks. Animals were weighed and the tumors measured at each treatment. In a second experiment, the control peptide, CPA, was included. Three days after the final treatment, tumors and lungs were harvested. Tumor burden of the lungs (from experiment 1) was determined by counting colonies (<20 cells), clusters (>20-100 cells), and nodules (>100 cells) seen in all the lung tissue on a total of 4 slides or sections for each mouse. Data are presented as the average number of each size of metastasis for each treatment group (3-4 mice/group). The total number of each was summed for each treatment group, and divided by the total number of mice in that group. The percent inhibition for metastasis was determined by the formula: % inhibition=(# mock-treated−# treated/# mock-treated)×100.
To test for therapeutic activity of the peptide, BP1, mice were implanted with human breast cancer cells, MDA-MB-231, which produces lung metastases spontaneously when implanted as a subcutaneous tumor. When the tumors averaged 0.12 cm^3 in volume, either mock-treatment or therapy with BP1 was initiated at 200 μg, two times per week for 4 weeks. […] In a subsequent experiment, treatment was commenced when tumors were 0.07-0.08 cm^3. After 4 weeks of treatment, as described, the mean volume of the mock- and CPA-treated tumors was 0.25 and 0.33 cm^3, respectively, whereas BP1-treated tumors averaged 0.04 cm^3 (P<0.05 BP1 vs. mock- or CPA-treated tumors) (FIG. 3A).

VEGF165 = molecular target: T1, VEGF165 (Homo sapiens, UniProt P15692); test: Free peptide binding ELISA (FLAG epitope probe), VEGF-coated wells; conditions: ELISA-based binding assay
T1 construct: purchased R&D Systems
T1 sequence (P15692 27-191 isoform P15692-4): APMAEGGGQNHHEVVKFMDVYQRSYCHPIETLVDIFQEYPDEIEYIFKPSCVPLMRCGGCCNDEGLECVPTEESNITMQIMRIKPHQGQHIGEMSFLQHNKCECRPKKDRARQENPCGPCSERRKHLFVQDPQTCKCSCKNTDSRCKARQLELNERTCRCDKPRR
Procedure: (§4) Competition assays were done with 2.5 or 25 U/ml heparin (Sigma, St. Louis, Mo.). BP1, 3, 4, and a scrambled version of BP3 (scrBP3) were synthesized with a linker followed by the FLAG epitope ([…] SEQ ID NO:5) at the C-terminus. Thirty minutes after addition of the first reagent, the second reagent was added, followed by another 30 minute incubation. Peptide binding was assessed by probing for the FLAG epitope (Prickett et al., Biotechniques 7:580-9, 1989; Castrucci et al., J. Virol. 66:4647-53, 1992). Absorbance was read at 490 nm.

[3] = molecular target: T2, recombinant human Flt-1 fusion protein (Homo sapiens, UniProt P17948); test: Free peptide binding and competition ELISA, Flt-1-coated wells; conditions: ELISA-based binding assay
T2 construct: purchased R & D Systems
Procedure: as §4

MCF-7 = test: Wound-healing (motility) assay, MCF-7; format: cell-based, human; conditions: for Migrating cells: 18-24 h
Procedure: as §1, §2, §3

PlGF = molecular target: T3, PlGF (Homo sapiens, UniProt P49763); test: Free peptide binding ELISA (FLAG epitope probe), PlGF-coated wells; conditions: free peptide; BP3, BP4, BP3scr at up to 50 μM
T3 construct: purchased R&D Systems
T3 sequence (P49763 19-170 isoform P49763-3 limits assumed): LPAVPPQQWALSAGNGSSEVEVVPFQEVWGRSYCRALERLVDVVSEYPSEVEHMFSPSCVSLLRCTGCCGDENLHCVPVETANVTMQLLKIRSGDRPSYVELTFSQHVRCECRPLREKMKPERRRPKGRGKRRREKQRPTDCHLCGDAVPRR
Procedure: as §4

MDA-MB-231 [4] = test: Matrigel cell invasion assay, MDA-MB-231; format: cell-based, human; conditions: 24 h
Procedure: Cellular invasion was determined by addition of 5×10^4cells to growth factor-reduced Matrigel invasion chambers (BD Biosciences Discovery Labware, Bedford, Mass.) (Taylor et al., 2003b; Passaniti et al., 1992, Lab Invest 67, 519-528). Additives to the Matrigel® plugs were pre-incubated together in a total volume of 100 μl PBS at RT for 10 min, after which each additive was added to the Matrigel. Growth factors (2.0 or 0.2 nM), peptide (2 μg/ml), or antibody (1 μg/ml) were added to cells in low serum (0.1% fetal bovine serum [FBS]) medium. Baseline and chemoattractant-based invasion (10% FBS) were included. The number of invading cells was determined by counting the number of cells on the bottom of the invasion chamber membrane after staining at 100× magnification after 24 h (MDA-MB-231) or 48 h (MCF-7, MDA-MB-468). The results of three to five separate experiments are presented.

MDA-MB-231 mfp tumor = test: Orthotopic mammary fat pad (mfp) MDA-MB-231 model; format: in vivo, SCID mice
Source text: MDA-MB-231, grown in tissue culture, was also implanted in the mammary fat pad (mfp) of SCID mice (3×10^6 cells, 4-5 mice/group). In this model, large pulmonary metastases are less likely to develop (Richert et al., Breast Cancer Res. 7:R819-27, 2005). Peptide treatment was commenced on day 5 after implantation, when small tumors were palpable in all mice (8 treatments). Three days after the final peptide treatment, tumors were removed and weighed. Lungs were harvested and examined microscopically for metastases, as described above.

MDA-MB-468 = test: Wound-healing (motility) assay, MDA-MB-468; format: cell-based, human; conditions: for Migrating cells: 18-24 h
Procedure: as §1, §2, §3

MDA-MB-468 xenografts = format: in vivo, mice; conditions: 200 μg/dose i.p., twice-weekly, after 4 weeks
Procedure: FIG. 5. Treatment of mice bearing MDA-MB-468 xenografts with peptides BP1 or BP3. Mice were treated every 3-4 days with 200 ug BP as described in Methods. Tumor volume was measured 2×/week. *P<0.05 at days 10, 14, 17 and 24 (change in tumor volume (ANOVA)). FIG. 5A—tumors treated with binding peptide 1. FIG. 5B—tumors treated with binding peptide 3.
Mice bearing MDA-MB-468 xenografts (average tumor volume: 0.19 cm^3) were treated with i.p. injections of individual peptides (200 μg/dose) (FIG. 5). After 4 weeks of twice-weekly treatment, tumor growth was inhibited by 49% and 58% in mice treated with BP1 (FIG. 5A) or BP3 (FIG. 5B), respectively. The effect of BP3 on tumor growth was apparent after 2 weeks of treatment (FIG. 5B), whereas the inhibitory effect of BP1 was evident after one week (FIG. 5A). The average changes in individual tumor volumes during treatment with BP1 were significant (P<0.05) at days 10, 14, 17 and 24 (FIG. 5A). Treatment with BP2 was ineffective; tumors continued to grow at almost the same rate as the mock-treated controls (results not shown). BP4 treatment produced a 20% inhibition of tumor growth (results not shown).

[5] = PlGF 2 nM ± test agent, relative to PlGF-only value, unit assumed
[6] = growth factor PlGF 2 nM ± test agent (Flt-1 2 nM, peptide 2 μM, antibody 1 μg/ml, PD98059 50 μM, Wortmannin 5 nM)
[7] = VEGF 2 nM ± test agent, relative to VEGF-only value, unit assumed
[8] = growth factor VEGF 2 nM ± test agent (peptide 2 μM, antibody 1 μg/ml)
[9] = growth factor VEGF 2 nM ± test agent
[10] = growth factor PlGF 2 nM ± test agent (Flt-1 2 nM, peptide 2 μM, antibody 1 μg/ml)
[11] = PlGF 2 nM ± test agent, relative to PlGF-only value

T2 sequence (P17948 with tags, fused parts or gaps limits assumed): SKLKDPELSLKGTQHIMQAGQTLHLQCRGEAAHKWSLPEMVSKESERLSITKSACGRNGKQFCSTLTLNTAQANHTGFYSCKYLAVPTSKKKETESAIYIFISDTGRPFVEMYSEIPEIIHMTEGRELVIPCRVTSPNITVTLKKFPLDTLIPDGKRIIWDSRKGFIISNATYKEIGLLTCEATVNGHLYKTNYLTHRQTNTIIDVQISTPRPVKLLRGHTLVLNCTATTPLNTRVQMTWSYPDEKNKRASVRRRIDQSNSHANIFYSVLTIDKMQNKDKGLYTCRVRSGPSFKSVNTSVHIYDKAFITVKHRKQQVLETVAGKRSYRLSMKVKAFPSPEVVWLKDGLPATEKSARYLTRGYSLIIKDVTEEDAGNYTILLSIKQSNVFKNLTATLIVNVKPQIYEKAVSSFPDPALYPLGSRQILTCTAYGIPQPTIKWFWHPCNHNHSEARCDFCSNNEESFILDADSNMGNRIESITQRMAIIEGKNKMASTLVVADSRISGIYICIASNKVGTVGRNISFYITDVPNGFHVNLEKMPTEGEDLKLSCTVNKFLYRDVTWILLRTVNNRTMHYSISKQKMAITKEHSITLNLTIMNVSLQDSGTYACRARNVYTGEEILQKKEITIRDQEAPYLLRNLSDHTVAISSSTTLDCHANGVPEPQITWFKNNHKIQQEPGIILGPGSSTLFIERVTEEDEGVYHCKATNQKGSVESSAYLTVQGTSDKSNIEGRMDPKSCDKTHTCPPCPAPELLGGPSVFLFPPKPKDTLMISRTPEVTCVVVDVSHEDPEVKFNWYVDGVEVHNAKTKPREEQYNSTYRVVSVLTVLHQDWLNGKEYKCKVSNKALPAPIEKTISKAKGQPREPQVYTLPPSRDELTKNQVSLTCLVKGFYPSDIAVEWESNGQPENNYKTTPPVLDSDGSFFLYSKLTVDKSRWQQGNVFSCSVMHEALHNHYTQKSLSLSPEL

Molecule: COc1cccc(-c2cc(=O)c3ccccc3o2)c1N [PD98059, reference compound]
- Relative activity (MDA-MB-231 [1]; [5]): 43%
- Migrating cells (MDA-MB-231 [1]; [6]): 18.4 ± 8.0‡ cells/100× field
- inhibition (block) of PlGF-stimulated motility / migration (MDA-MB-231 [1]): 68%

Molecule: COC[C@H]1OC(=O)c2coc3c2[C@@]1(C)C1=C(C3=O)[C@@H]2CCC(=O)[C@@]2(C)C[C@H]1OC(C)=O [Wortmannin, reference compound]
- Relative activity (MDA-MB-231 [1]; [5]): 39%
- Migrating cells (MDA-MB-231 [1]; [6]): 16.4 ± 5.8‡ cells/100× field
- inhibition (block) of PlGF-stimulated motility / migration (MDA-MB-231 [1]): 72%

- binding to VEGF (in words) (VEGF165): bound
- attenuated affinity for Flt-1 [3]: 50%
- binding to PlGF (in words) (PlGF): bound
Molecule: CPA: control peptide derived by substituting A for the H, R and D residues in BP1 (SAAYALAIQLAASASSSSCV) [reference compound]
- Relative activity (MDA-MB-231 [1]; [7]): 121%
- effect on PlGF-stimulated motility (in words) (MDA-MB-231 [1]; antibody 1 μg/ml, peptide 2 μM): had no effect
- Migrating cells (MDA-MB-231 [1]; [6]): 39.8 ± 10.6 cells/100× field
- Migrating cells (MDA-MB-231 [1]; [8]): 13.4 ± 4.5 cells/100× field
- mean tumor volume after 4 weeks of treatment [2]: 0.33 cm^3
- Relative activity (MCF-7; [7]): 111%
- Migrating cells (MCF-7; [9]): 19.4 ± 8.9 cells/100× field
- invading cells, PlGF plus peptide (MDA-MB-231 [4]; PlGF-stimulated invasion with added peptide): 35±17.3 cells
- tumor weight (MDA-MB-231 mfp tumor; 8 peptide treatments, mock-treated 0.423±0.089): 0.416 ± 0.083 g
- micrometastasis counts per mouse (MDA-MB-231 mfp tumor; lung, mock-treated 3.4±1.9): 2.8±1.3
- Relative activity (MDA-MB-468; [7]): 104%
- Migrating cells (MDA-MB-468; [10]): 21.6 ± 6.1 cells/100× field
- Migrating cells (MDA-MB-468; [9]): 14.6 ± 8.0 cells/100× field

Molecule: QDDHLTTGR (listed as Homo sapiens) [BP2]
- tumor growth inhibition (MDA-MB-468 xenografts): ineffective

Molecule: VEGF
- Migrating cells (MDA-MB-231 [1]; [8]): 11.1 ± 1.8 cells/100× field
- Migrating cells (MCF-7; [9]): 12.7 ± 4.1 cells/100× field
- invading cells (MDA-MB-231 [4]; VEGF 2.0 nM or 0.2 nM): 10±8.0 cells
- Migrating cells (MDA-MB-468; [9]): 14.0 ± 11.3 cells/100× field

B1: Flt-1: human recombinant soluble Flt-1 (sFlt-1) (R&D Systems) (protein)
chain: SKLKDPELSLKGTQHIMQAGQTLHLQCRGEAAHKWSLPEMVSKESERLSITKSACGRNGKQFCSTLTLNTAQANHTGFYSCKYLAVPTSKKKETESAIYIFISDTGRPFVEMYSEIPEIIHMTEGRELVIPCRVTSPNITVTLKKFPLDTLIPDGKRIIWDSRKGFIISNATYKEIGLLTCEATVNGHLYKTNYLTHRQTNTIIDVQISTPRPVKLLRGHTLVLNCTATTPLNTRVQMTWSYPDEKNKRASVRRRIDQSNSHANIFYSVLTIDKMQNKDKGLYTCRVRSGPSFKSVNTSVHIYDKAFITVKHRKQQVLETVAGKRSYRLSMKVKAFPSPEVVWLKDGLPATEKSARYLTRGYSLIIKDVTEEDAGNYTILLSIKQSNVFKNLTATLIVNVKPQIYEKAVSSFPDPALYPLGSRQILTCTAYGIPQPTIKWFWHPCNHNHSEARCDFCSNNEESFILDADSNMGNRIESITQRMAIIEGKNKMASTLVVADSRISGIYICIASNKVGTVGRNISFYITDVPNGFHVNLEKMPTEGEDLKLSCTVNKFLYRDVTWILLRTVNNRTMHYSISKQKMAITKEHSITLNLTIMNVSLQDSGTYACRARNVYTGEEILQKKEITIRDQEAPYLLRNLSDHTVAISSSTTLDCHANGVPEPQITWFKNNHKIQQEPGIILGPGSSTLFIERVTEEDEGVYHCKATNQKGSVESSAYLTVQGTSDKSN
modifications: left off: large carriers
- Relative activity (MDA-MB-231 [1]; [11]): 45
- Migrating cells (MDA-MB-231 [1]; [6]): 19.1 ± 8.0† cells/100× field
- inhibition (block) of PlGF-stimulated motility / migration (MDA-MB-231 [1]): 55%
- Relative activity (MCF-7; [11]): 47
- Migrating cells (MCF-7; [10]): 10.4 ± 8.2† cells/100× field
- block of the stimulatory effect of PlGF on motility (MCF-7; soluble Flt-1 2 nM): 67%
- Relative activity (MDA-MB-468; [11]): 53
- Migrating cells (MDA-MB-468; [10]): 7.8 ± 5.9† cells/100× field
